In brackets after ≈: the same amount, converted by molar mass.
Columns and labels:
[1] = test system: Staphylococcus epidermidis; test: Antibacterial activity against Staphylococcus epidermidis ATCC 35984; assay type: functional
[2] = Selectivity ratio of MIC for cytotoxicity against human HL-60 cells to MIC for antitrypanosomal activity against bloodstream form of Trypanosoma brucei clone 427-221a; assay type: toxicity, cell-based
[3] = test system: Staphylococcus epidermidis; test: Antibacterial activity against Staphylococcus epidermidis 830/19; assay type: functional
Staphylococcus aureus [4] = test: Antibacterial activity against Staphylococcus aureus ATCC 25923; assay type: functional
[5] = Selectivity ratio of GI50 for cytotoxicity against human HL-60 cells to GI50 for antitrypanosomal activity against bloodstream form of Trypanosoma brucei clone 427-221a; assay type: toxicity, cell-based; details: read-out: RatioGI50
[6] = test system: Staphylococcus epidermidis; test: Antibacterial activity against Staphylococcus epidermidis 845/19; assay type: functional
Staphylococcus aureus [7] = test: Antibacterial activity against Staphylococcus aureus NCTC 4163; assay type: functional
Escherichia coli [8] = test: Antibacterial activity against Escherichia coli ATCC 25922; assay type: functional
[9] = test system: Staphylococcus epidermidis; test: Antibacterial activity against Staphylococcus epidermidis 829/19; assay type: functional
[10] = test system: Staphylococcus epidermidis; test: Antibacterial activity against Staphylococcus epidermidis 840/19; assay type: functional
[11] = test system: Staphylococcus epidermidis; test: Antibacterial activity against Staphylococcus epidermidis 825/19; assay type: functional
[12] = test system: Staphylococcus epidermidis; test: Antibacterial activity against Staphylococcus epidermidis 834/19; assay type: functional
[13] = test system: Staphylococcus epidermidis; test: Antibacterial activity against Staphylococcus epidermidis ATCC 12228; assay type: functional
Pseudomonas aeruginosa [14] = test: Antibacterial activity against Pseudomonas aeruginosa […]; assay type: functional
Pseudomonas aeruginosa [15] = test: Antibacterial activity against Pseudomonas aeruginosa ATCC 15442; assay type: functional
[16] = test system: Staphylococcus epidermidis; test: Antibacterial activity against Staphylococcus epidermidis 851/19; assay type: functional
[17] = test system: Staphylococcus epidermidis; test: Antibacterial activity against Staphylococcus epidermidis 848/19; assay type: functional
HL-60 = test: (§1) Cytotoxicity against human HL-60 cells assessed as reduction in cell viability measured after 24 hrs by resazurin dye based assay; assay type: toxicity; details: hl-60, 24 h
[18] = as §1; assay type: toxicity; details: HL-60 cells
Escherichia coli [19] = test: Antibacterial activity against Escherichia coli NCTC 10538; assay type: functional
Staphylococcus aureus [20] = test: Antibacterial activity against Staphylococcus aureus ATCC 6538; assay type: functional
Staphylococcus aureus [21] = test: Antibacterial activity against Staphylococcus aureus ATCC 29213; assay type: functional
Trypanosoma brucei = test: Antitrypanosomal activity against bloodstream form of Trypanosoma brucei clone 427-221a measured after 24 hrs by resazurin dye based assay; assay type: functional

Row | SMILES | MIC [1] | selectivity ratio [2] | MIC [3] | MIC (Staphylococcus aureus [4]) | selectivity ratio [5] | MIC [6] | MIC (Staphylococcus aureus [7]) | MIC [9] | MIC [10] | MIC [11] | MIC [12] | MIC [13] | MIC (Pseudomonas aeruginosa [14]) | MIC (Pseudomonas aeruginosa [15]) | MIC [16] | MIC [17] | MIC (HL-60) | GI50 at 24 h [18] | GI50 (Trypanosoma brucei) | MIC (Trypanosoma brucei) | also measured
1 | CO[C@H]([C@H](C)[C@H]1O[C@@]2(CC[C@@](C)([C@H]3CC[C@@](CO)([C@@H]4O[C@@H]([C@H]5O[C@@](O)(COC(=O)NCCCl)[C@H](C)C[C@@H]5C)C[C@@H]4C)O3)O2)C[C@H](O)[C@H]1C)[C@H](C)C(=O)O | 8 µg/mL (≈ 10.3 µM) | 10 | 4 µg/mL (≈ 5.14 µM) | 2 µg/mL (≈ 2.57 µM) | 6.4 | 4 µg/mL (≈ 5.14 µM) | 2 µg/mL (≈ 2.57 µM) | 4 µg/mL (≈ 5.14 µM) | 4 µg/mL (≈ 5.14 µM) | 2 µg/mL (≈ 2.57 µM) | 4 µg/mL (≈ 5.14 µM) | 2 µg/mL (≈ 2.57 µM) | > 256 µg/mL | > 256 µg/mL | 4 µg/mL (≈ 5.14 µM) | 4 µg/mL (≈ 5.14 µM) | 100 µM (≈ 77.8 µg/mL) | 22.4 µM | 3.48 µM | 10 µM (≈ 7.78 µg/mL) | MIC (Escherichia coli [8]): > 256 µg/mL; MIC (Escherichia coli [19]): > 256 µg/mL; MIC (Staphylococcus aureus [20]): 4 µg/mL (≈ 5.14 µM); MIC (Staphylococcus aureus [21]): 2 µg/mL (≈ 2.57 µM)
2 | CCCNC(=O)OC[C@]1(O)O[C@H]([C@H]2C[C@H](C)[C@H]([C@]3(CO)CC[C@H]([C@]4(C)CC[C@]5(C[C@H](O)[C@@H](C)[C@@H]([C@@H](C)[C@@H](OC)[C@H](C)C(=O)O)O5)O4)O3)O2)[C@@H](C)C[C@H]1C | 8 µg/mL (≈ 10.6 µM) | 10 | 4 µg/mL (≈ 5.28 µM) | 2 µg/mL (≈ 2.64 µM) | 8.3 | 4 µg/mL (≈ 5.28 µM) | 2 µg/mL (≈ 2.64 µM) | 4 µg/mL (≈ 5.28 µM) | 4 µg/mL (≈ 5.28 µM) | 2 µg/mL (≈ 2.64 µM) | 4 µg/mL (≈ 5.28 µM) | 4 µg/mL (≈ 5.28 µM) | > 256 µg/mL | > 256 µg/mL | 4 µg/mL (≈ 5.28 µM) | 4 µg/mL (≈ 5.28 µM) | 100 µM (≈ 75.8 µg/mL) | 24.5 µM | 2.94 µM | 10 µM (≈ 7.58 µg/mL) | MIC (Escherichia coli [8]): > 256 µg/mL; MIC (Escherichia coli [19]): > 256 µg/mL; MIC (Staphylococcus aureus [20]): 2 µg/mL (≈ 2.64 µM); MIC (Staphylococcus aureus [21]): 4 µg/mL (≈ 5.28 µM)
3 | CCNC(=O)OC[C@]1(O)O[C@H]([C@H]2C[C@H](C)[C@H]([C@]3(CO)CC[C@H]([C@]4(C)CC[C@]5(C[C@H](O)[C@@H](C)[C@@H]([C@@H](C)[C@@H](OC)[C@H](C)C(=O)O)O5)O4)O3)O2)[C@@H](C)C[C@H]1C | 16 µg/mL (≈ 21.5 µM) | 10 | 8 µg/mL (≈ 10.8 µM) | 4 µg/mL (≈ 5.38 µM) | 28.1 | 8 µg/mL (≈ 10.8 µM) | 8 µg/mL (≈ 10.8 µM) | 8 µg/mL (≈ 10.8 µM) | 8 µg/mL (≈ 10.8 µM) | 8 µg/mL (≈ 10.8 µM) | 4 µg/mL (≈ 5.38 µM) | 8 µg/mL (≈ 10.8 µM) | > 256 µg/mL | > 256 µg/mL | 16 µg/mL (≈ 21.5 µM) | 16 µg/mL (≈ 21.5 µM) | 100 µM (≈ 74.4 µg/mL) | 85.8 µM | 3.05 µM | 10 µM (≈ 7.44 µg/mL) | MIC (Escherichia coli [8]): > 256 µg/mL; MIC (Escherichia coli [19]): > 256 µg/mL; MIC (Staphylococcus aureus [20]): 8 µg/mL (≈ 10.8 µM); MIC (Staphylococcus aureus [21]): 8 µg/mL (≈ 10.8 µM)
4 | CO[C@H]([C@H](C)[C@H]1O[C@@]2(CC[C@@](C)([C@H]3CC[C@@](CO)([C@@H]4O[C@@H]([C@H]5O[C@@](O)(COC(=O)NCCCCl)[C@H](C)C[C@@H]5C)C[C@@H]4C)O3)O2)C[C@H](O)[C@H]1C)[C@H](C)C(=O)O | 4 µg/mL (≈ 5.05 µM) | 10 | 4 µg/mL (≈ 5.05 µM) | 2 µg/mL (≈ 2.52 µM) | 5.9 | 4 µg/mL (≈ 5.05 µM) | 2 µg/mL (≈ 2.52 µM) | 4 µg/mL (≈ 5.05 µM) | 8 µg/mL (≈ 10.1 µM) | 2 µg/mL (≈ 2.52 µM) | 4 µg/mL (≈ 5.05 µM) | 4 µg/mL (≈ 5.05 µM) | > 256 µg/mL | > 256 µg/mL | 4 µg/mL (≈ 5.05 µM) | 8 µg/mL (≈ 10.1 µM) | 100 µM (≈ 79.2 µg/mL) | 18.1 µM | 3.05 µM | 10 µM (≈ 7.92 µg/mL) | MIC (Escherichia coli [8]): > 256 µg/mL; MIC (Escherichia coli [19]): > 256 µg/mL; MIC (Staphylococcus aureus [20]): 2 µg/mL (≈ 2.52 µM); MIC (Staphylococcus aureus [21]): 4 µg/mL (≈ 5.05 µM)
5 | CCCCNC(=O)OC[C@]1(O)O[C@H]([C@H]2C[C@H](C)[C@H]([C@]3(CO)CC[C@H]([C@]4(C)CC[C@]5(C[C@H](O)[C@@H](C)[C@@H]([C@@H](C)[C@@H](OC)[C@H](C)C(=O)O)O5)O4)O3)O2)[C@@H](C)C[C@H]1C | 1 µg/mL (≈ 1.3 µM) | 19 | 1 µg/mL (≈ 1.3 µM) | 1 µg/mL (≈ 1.3 µM) | 24.3 | 2 µg/mL (≈ 2.59 µM) | 1 µg/mL (≈ 1.3 µM) | 1 µg/mL (≈ 1.3 µM) | 2 µg/mL (≈ 2.59 µM) | 1 µg/mL (≈ 1.3 µM) | 2 µg/mL (≈ 2.59 µM) | 1 µg/mL (≈ 1.3 µM) | > 256 µg/mL | > 256 µg/mL | 2 µg/mL (≈ 2.59 µM) | 2 µg/mL (≈ 2.59 µM) | 100 µM (≈ 77.2 µg/mL) | 11.4 µM | 0.47 µM | 10 µM (≈ 7.72 µg/mL) | MIC (Escherichia coli [8]): > 256 µg/mL; MIC (Escherichia coli [19]): > 256 µg/mL; MIC (Staphylococcus aureus [20]): 1 µg/mL (≈ 1.3 µM); MIC (Staphylococcus aureus [21]): 2 µg/mL (≈ 2.59 µM)
6 | O=C(O)c1cn(C2CC2)c2cc(N3CCNCC3)c(F)cc2c1=O [CIPROFLOXACIN] | 0.25 µg/mL (≈ 0.754 µM) | – | 64 µg/mL (≈ 193 µM) | 0.5 µg/mL (≈ 1.51 µM) | – | 16 µg/mL (≈ 48.3 µM) | 0.25 µg/mL (≈ 0.754 µM) | ≤ 0.125 µg/mL | ≤ 0.125 µg/mL | 4 µg/mL (≈ 12.1 µM) | ≤ 0.125 µg/mL | 0.5 µg/mL (≈ 1.51 µM) | < 0.125 µg/mL | < 0.125 µg/mL | ≤ 0.125 µg/mL | ≤ 0.125 µg/mL | – | – | – | – | –
7 | Cc1ccc(C(=O)Nc2ccc(S(=O)(=O)O)c3cc(S(=O)(=O)O)cc(S(=O)(=O)O)c23)cc1NC(=O)c1cccc(NC(=O)Nc2cccc(C(=O)Nc3cc(C(=O)Nc4ccc(S(=O)(=O)O)c5cc(S(=O)(=O)O)cc(S(=O)(=O)O)c45)ccc3C)c2)c1 [SURAMIN] | – | > 100 | – | – | > 2000 | – | – | – | – | – | – | – | – | – | – | – | > 100 µM | > 100 µM | 0.05 µM | 1 µM (≈ 1.3 µg/mL) | –

From ChEMBL document CHEMBL5131424, “Synthesis and evaluation of antibacterial and trypanocidal activity of derivatives of monensin A” (Bioorg Med Chem Lett, 2022)
